pIC50: −log10 of the molar value.
Tests used:
Assay in all cases: Cell proliferation assay (Alamar Blue)
Format in all cases: cell-based
Li-7 = conditions: 144 h; Li-7 liver cancer cell line; 6 days
Method: (§1) 1. Instruments and Materials • Thermo 311 CO2 incubator; Haier biosafety cabinet; Molecular Devices microplate reader; Xiangyi brand L530 desktop low speed centrifuge; Olympus IX51 inverted fluorescence microscope, DMEM, RPMI 1640, MEM, DMEM/F12 1:1 medium, Fetal bovine serum, 0.25% trypsin solution, phosphate buffer (Thermo Fisher Shanghai Co., Ltd.); sigma dimethyl sulfoxide (DMSO), resazurin; 54 commercial tumor cell lines (including 26 liver cancer cell lines). Experimental drugs: compounds 1-12 and active drug Linifanib; chemotherapeutic drug Doxorubicin (HY-15142; Shanghai Qianyuan Biomedical Technology Co., Ltd.).
(§2) 2. Experimental Methods • 2.1 Cultivation of different cell lines • 54 cell lines were cultured in a culture medium containing fetal bovine serum and placed in a 5% CO 2 incubator at 37° C. for incubation. The cells were all grown in an adherent state, and the growth was observed under an inverted microscope, and subculture was performed when the cell confluence rate reached 80%-90%. The proportion and quantity of passage were determined by experimental needs. The ratio of subculture of this cell line was generally 1:2^˜1:3. • 2.2 inhibition effect on the proliferation of different tumor cell lines • Cell test: 54 cell lines in logarithmic growth phase were inoculated in 96-well culture plates at 500^˜1×10^4/well (the optimal seeding density of each cell line was determined in pre-experiment), After incubating at 37° C. for 4 h in a 5% CO2 humidification incubator, added 10 μL of compounds 1-12 or Linifanib to each well, and tested 9 drug concentration gradients for each compound (diluted from the highest concentration of the test by 3.16 times). The solubility of each compound was different at a starting concentration of 30 or 100 μM, respectively. The QC reference compound Doxorubicin was added simultaneously to each cell line test, and the final drug concentrations were 10, 3.16, 1, 0.31, 0.1, 0.03, 0.01, 0.003, and 0.001 μM, respectively. In addition, a positive control group (100% inhibition) and a negative control group (0% inhibition) were set at the same time. The drug group was repeated for 2 wells per concentration, and the positive control group and the negative control group were repeated for 6 wells. After the culture was continued for 6 days in the incubator, AlamarBlue test operation was followed; • AlamarBlue test procedure: Incubated with 10 μL of AlamarBlue reagent per well for 1-4 h, shook for 1-2 min, MD microplate reader EX: 560 nm, EM: 590 nm wavelength to measure fluorescence, recorded the results, calculated the cell inhibition rate of the compound of the invention. Cell inhibition rate (%)=(A0% inhibition−A administration)/(A0% inhibition−A100% inhibition)×100%, and then using the method of nonlinear regression using Graph Pad Prism 5.0 or MATILAB software (usually using four parameters) to graph and obtain a drug dose response curve to obtain an IC50 value of the compound of the present invention acting on a cancer cell line.

K562 = conditions: Homo sapiens, 144 h; K562 tumor cell line; 6 days
Method: as §1, §2

AN3CA = conditions: Homo sapiens, AN3-CA, 144 h; AN3CA (endometrial cells); 6 days
Method: as §1, §2

HUH6 = conditions: Homo sapiens, HuH-6, 144 h; HUH6 liver cancer cell line; 6 days
Method: as §1, §2

T.T = conditions: Homo sapiens, TT, 144 h; T.T tumor cell line; 6 days
Method: as §1, §2

SNU398 = conditions: Homo sapiens, SNU-398, 144 h; SNU398 liver cancer cell line; 6 days
Method: as §1, §2

HUH7 = conditions: Homo sapiens, Huh-7, 144 h; HUH7 liver cancer cell line; 6 days
Method: as §1, §2

DU145 = conditions: Homo sapiens, DU-145, 144 h; DU145 tumor cell line; 6 days
Method: as §1, §2

HLF = conditions: 144 h; HLF liver cancer cell line; 6 days
Method: as §1, §2

Alexander cells = conditions: 144 h, liver cancer cell line, 6 days
Method: as §1, §2

JHH4 = conditions: JHH-4, 144 h; JHH4 liver cancer cell line; 6 days
Method: as §1, §2

NCl-H1703 = conditions: 144 h; NCl-H1703 (lung cancer cells); 6 days
Method: as §1, §2

SNU387 = conditions: Homo sapiens, SNU-387, 144 h; SNU387 liver cancer cell line; 6 days
Method: as §1, §2

JHH2 = conditions: JHH-2, 144 h; JHH2 liver cancer cell line; 6 days
Method: as §1, §2

HT55 = conditions: Homo sapiens, 144 h; HT55 tumor cell line; 6 days
Method: as §1, §2

SNU761 = conditions: 144 h; SNU761 liver cancer cell line; 6 days
Method: as §1, §2

NCl-H661 = conditions: 144 h; NCl-H661 tumor cell line; 6 days
Method: as §1, §2

LNCAP-clone-FGC = conditions: Homo sapiens, 144 h; LNCAP-clone-FGC tumor cell line; 6 days
Method: as §1, §2

HT1080 = conditions: Homo sapiens, HT-1080, 144 h; HT1080 tumor cell line; 6 days
Method: as §1, §2

KM12 = conditions: Homo sapiens, 144 h; KM12 tumor cell line; 6 days
Method: as §1, §2

HLE = conditions: Homo sapiens, 144 h; HLE liver cancer cell line; 6 days
Method: as §1, §2

CCRF-CEM = conditions: Homo sapiens, 144 h; CCRF-CEM tumor cell line; 6 days
Method: as §1, §2

MDA-MB-435S = conditions: Homo sapiens, 144 h; MDA-MB-435S tumor cell line; 6 days
Method: as §1, §2

JHH6 = conditions: 144 h; JHH6 liver cancer cell line; 6 days
Method: as §1, §2

SMILES | pIC50 (K562) | pIC50 (HUH6) | pIC50 (SNU398) | pIC50 (HUH7) | pIC50 (DU145) | pIC50 (NCl-H1703) | pIC50 (SNU387) | pIC50 (SNU761) | pIC50 (NCl-H661) | pIC50 (LNCAP-clone-FGC) | pIC50 (HT1080) | pIC50 (Li-7) | pIC50 (AN3CA) | pIC50 (T.T) | pIC50 (HLF) | pIC50 (Alexander cells) | pIC50 (JHH4) | pIC50 (JHH2) | pIC50 (HT55) | pIC50 (KM12) | also measured
Cc1ccc(F)c(NC(=O)Nc2ccc(-c3cccc4c3c(N)nn4C(=O)C[C@H](N)C(=O)N[C@@H](CCC(=O)O)C(=O)O)cc2)c1 [Compound 1] | 5.40 | 6.89 | 5.58 | 5.49 | 5.56 | 7.40 | 4.89 | 5.02 | 5.15 | 5.26 | 4.88 | 5.27 | 6.51 | 5.28 | 5.40 | 5.26 | 5.58 | 4.54 | 4.78 | 5.72 | pIC50 (HLE): 5.70; pIC50 (CCRF-CEM): 5.60; pIC50 (MDA-MB-435S): 4.72; pIC50 (JHH6): 5.52
Cc1ccc(F)c(NC(=O)Nc2ccc(-c3cccc4c3c(N)nn4C(=O)CCCCCNC(=O)C[C@H](N)C(=O)N[C@@H](CCC(=O)N[C@@H](CCC(=O)N[C@@H](CCC(=O)N[C@@H](CCC(=O)O)C(=O)O)C(=O)O)C(=O)O)C(=O)O)cc2)c1 [Compound 5] | 4.25 | 4.14 | < 4.00 | 4.11 | 4.26 | 5.46 | < 4.00 | < 4.00 | < 4.00 | < 4.00 | < 4.00 | 4.23 | 4.34 | < 4.00 | 4.19 | < 4.00 | 4.22 | < 4.00 | < 4.00 | 4.34 | pIC50 (HLE): 4.27; pIC50 (CCRF-CEM): 4.15; pIC50 (MDA-MB-435S): < 4.00; pIC50 (JHH6): 4.10
Cc1ccc(F)c(NC(=O)Nc2ccc(-c3cccc4c3c(N)nn4C(=O)CCCCCNC(=O)C[C@H](N)C(=O)N[C@@H](CCC(=O)N[C@@H](CCC(=O)N[C@@H](CCC(=O)N[C@@H](CCC(=O)N[C@@H](CCC(=O)N[C@@H](CCC(=O)N[C@@H](CCC(=O)N[C@@H](CCC(=O)N[C@@H](CCC(=O)O)C(=O)O)C(=O)O)C(=O)O)C(=O)O)C(=O)O)C(=O)O)C(=O)O)C(=O)O)C(=O)O)cc2)c1 [Compound 6] | 4.13 | 4.05 | < 4.00 | 4.04 | 4.20 | 5.15 | < 4.00 | < 4.00 | < 4.00 | < 4.00 | < 4.00 | 4.09 | 4.26 | < 4.00 | 4.09 | < 4.00 | 4.10 | < 4.00 | < 4.00 | 4.15 | pIC50 (HLE): 4.16; pIC50 (CCRF-CEM): 4.04; pIC50 (MDA-MB-435S): < 4.00; pIC50 (JHH6): < 4.00

Further lines, with some results ahead:

pIC50 (K562) | pIC50 (HUH6) | pIC50 (SNU398) | pIC50 (HUH7) | pIC50 (DU145) | pIC50 (NCl-H1703) | pIC50 (SNU387) | pIC50 (SNU761) | pIC50 (NCl-H661) | pIC50 (LNCAP-clone-FGC) | pIC50 (HT1080) | SMILES | pIC50 (Li-7) | pIC50 (AN3CA) | pIC50 (T.T) | pIC50 (HLF) | pIC50 (Alexander cells) | pIC50 (JHH4) | pIC50 (JHH2) | pIC50 (HT55) | pIC50 (KM12) | also measured
5.15 | 6.09 | 5.20 | 5.36 | 5.31 | 7.20 | 4.71 | 4.82 | 4.95 | 5.20 | 4.71 | Cc1ccc(F)c(NC(=O)Nc2ccc(-c3cccc4c3c(N)nn4C(=O)C[C@H](N)C(=O)N[C@@H](CCC(=O)N[C@@H](CCC(=O)N[C@@H](CCC(=O)N[C@@H](CCC(=O)O)C(=O)O)C(=O)O)C(=O)O)C(=O)O)cc2)c1 [Compound 2] | 5.14 | 6.35 | 5.08 | 5.31 | 5.28 | 5.23 | 4.44 | 4.69 | 5.53 | pIC50 (HLE): 5.57; pIC50 (CCRF-CEM): 5.20; pIC50 (MDA-MB-435S): 4.52; pIC50 (JHH6): 5.36
4.77 | 5.81 | 4.77 | 5.17 | 5.13 | 6.82 | 4.40 | 4.54 | 4.68 | 4.81 | 4.59 | Cc1ccc(F)c(NC(=O)Nc2ccc(-c3cccc4c3c(N)nn4C(=O)C[C@H](N)C(=O)N[C@@H](CCC(=O)N[C@@H](CCC(=O)N[C@@H](CCC(=O)N[C@@H](CCC(=O)N[C@@H](CCC(=O)N[C@@H](CCC(=O)N[C@@H](CCC(=O)N[C@@H](CCC(=O)N[C@@H](CCC(=O)O)C(=O)O)C(=O)O)C(=O)O)C(=O)O)C(=O)O)C(=O)O)C(=O)O)C(=O)O)C(=O)O)cc2)c1 [Compound 3] | 5.00 | 6.19 | 4.70 | 5.11 | 4.90 | 4.92 | 4.39 | 4.50 | 5.33 | pIC50 (HLE): 5.33; pIC50 (CCRF-CEM): 4.99; pIC50 (MDA-MB-435S): 4.33; pIC50 (JHH6): 5.12
4.35 | 4.27 | 4.02 | 4.22 | 4.42 | 5.80 | < 4.00 | 4.07 | 4.00 | 4.12 | < 4.00 | Cc1ccc(F)c(NC(=O)Nc2ccc(-c3cccc4c3c(N)nn4C(=O)CCCCCNC(=O)C[C@H](N)C(=O)N[C@@H](CCC(=O)O)C(=O)O)cc2)c1 [Compound 4] | 4.33 | 4.54 | < 4.00 | 4.28 | 4.01 | 4.37 | < 4.00 | < 4.00 | 4.47 | pIC50 (HLE): 4.32; pIC50 (CCRF-CEM): 4.29; pIC50 (MDA-MB-435S): 4.01; pIC50 (JHH6): 4.17

From patent US11351151B2, “Compound having anticancer activity and preparation method and application” (3D Medicines (Beijing) Co., Ltd., priority 2016, dated 2022)
